pIC50: −log10 of the molar value. Calls of active or inactive are those of the source. The rule behind the calls is not given here.
How the values were obtained:
[1] = target: Receptor-type tyrosine-protein kinase FLT3 (Homo sapiens) (UniProt P36888); assay: Inhibition of FLT3 in human MV4-11 cells assessed as inhibition of STAT5 phosphorylation at Tyr694 residue incubated for 4 hrs by western blot analysis; format: cell-based; details: dose 0.1-100 nM
BaF3 = assay: Antiproliferative activity against mouse BaF3 cells harboring FLT3-ITD mutant assessed as reduction in cell viability measured after 72 hrs by CellTiterGlo luminescent assay; format: functional, cell-based; details: BaF3, 72 h
[2] = Ratio of IC50 for antiproliferative activity against mouse BaF3 cells harboring FLT3-ITD-N676D mutant to IC50 for antiproliferative activity against mouse BaF3 cells harboring FLT3-ITD mutant; format: functional
HCD-57 [3] = assay: Antiproliferative activity against mouse HCD-57 cells harboring FLT3-D835Y mutant assessed as reduction in cell viability measured after 72 hrs by CellTiterGlo luminescent assay; format: functional, cell-based
MKN-45 = assay: Antiproliferative activity against human MKN-45 cells assessed as reduction in cell viability measured after 72 hrs by CellTiterGlo luminescent assay; format: functional, cell-based; details: MKN-45, 72 h
NB-4 = assay: Antiproliferative activity against human NB-4 cells assessed as reduction in cell viability measured after 72 hrs by CellTiterGlo luminescent assay; format: functional, cell-based; details: NB-4, 72 h
MOLM-13 = assay: Antiproliferative activity against human MOLM-13 cells assessed as reduction in cell viability measured after 72 hrs by CellTiterGlo luminescent assay; format: functional, cell-based; details: MOLM-13, 72 h
[4] = system: Receptor-type tyrosine-protein kinase FLT3 (Homo sapiens), P36888 [UNDEFINED MUTATION]; assay: Inhibition of FLT3-ITD-F691L mutant (unknown origin) transformed in mouse BaF3 cells assessed as inhibition of STAT5 phosphorylation at Tyr694 residue incubated for 4 hrs by western blot analysis; format: cell-based; details: dose 0.1-100 nM
[5] = system: Receptor-type tyrosine-protein kinase FLT3 (Homo sapiens), P36888 [UNDEFINED MUTATION]; assay: Inhibition of FLT3-ITD-F691L mutant (unknown origin) transformed in mouse BaF3 cells assessed as inhibition of ERK phosphorylation at Thr202/Tyr204 residue incubated for 4 hrs by western blot analysis; format: cell-based; details: dose 0.1-100 nM
MV4-11 [6] = assay: Induction of apoptosis in human MV4-11 cells assessed as early apoptotic cells at 10 nM incubated for 24 hrs by AnnexinV-FITC/PI staining based flow cytometry (reference value: 3.09%); format: functional
MV4-11 [7] = assay: Induction of apoptosis in human MV4-11 cells assessed as necrotic cells at 10 nM incubated for 24 hrs by AnnexinV-FITC/PI staining based flow cytometry (reference value: 0.45%); format: functional
MV4-11 [8] = assay: Induction of apoptosis in human MV4-11 cells assessed as early apoptotic cells at 50 nM incubated for 24 hrs by AnnexinV-FITC/PI staining based flow cytometry (reference value: 3.09%); format: functional
MV4-11 [9] = assay: Induction of apoptosis in human MV4-11 cells assessed as late apoptotic cells at 50 nM incubated for 24 hrs by AnnexinV-FITC/PI staining based flow cytometry (reference value: 4.2%); format: functional
MV4-11 [10] = assay: Induction of apoptosis in human MV4-11 cells assessed as early apoptotic cells at 100 nM incubated for 24 hrs by AnnexinV-FITC/PI staining based flow cytometry (reference value: 3.09%); format: functional
HCD-57 [11] = assay: Induction of apoptosis in mouse HCD-57 cells harboring FLT3-D835Y mutant at 100 nM incubated for 24 hrs by AnnexinV-FITC/PI staining based flow cytometry; format: functional, cell-based
MV4-11 [12] = assay: Induction of cell cycle arrest in human MV4-11 cells assessed as proportion of cells at G1 phase at 10 nM incubated for 24 hrs by PI staining based flow cytometry (reference value: 56%); format: functional
MV4-11 [13] = assay: Induction of cell cycle arrest in human MV4-11 cells assessed as proportion of cells at G1 phase at 50 nM incubated for 24 hrs by PI staining based flow cytometry (reference value: 56%); format: functional
MV4-11 [14] = assay: Induction of cell cycle arrest in human MV4-11 cells assessed as proportion of cells at G1 phase at 100 nM incubated for 24 hrs by PI staining based flow cytometry (reference value: 56%); format: functional
HCD-57 [15] = assay: Induction of cell cycle arrest in mouse HCD-57 cells harboring FLT3-D835Y mutant at 100 nM incubated for 24 hrs by PI staining based flow cytometry; format: functional
[16] = Induction of cell cycle arrest in mouse HCD-57 cells at 100 nM incubated for 24 hrs by PI staining based flow cytometry; format: toxicity; details: hcd-57, 24 h, 0.1 µM
[17] = MRT (0 to t) in Sprague-Dawley rat at 1 mg/kg, iv measured for 24 hrs by LC-MS/MS analysis; format: ADME, organism-based; details: in vivo
[18] = Half-life in Sprague-Dawley rat at 1 mg/kg, iv measured for 24 hrs by LC-MS/MS analysis; format: ADME, organism-based; details: in vivo
[19] = Clearance in Sprague-Dawley rat at 1 mg/kg, iv measured for 24 hrs by LC-MS/MS analysis; format: ADME, organism-based; details: in vivo
[20] = AUC (0 to t) in Sprague-Dawley rat at 10 mg/kg, po measured for 24 hrs by LC-MS/MS analysis; format: ADME, organism-based; set-up: time 24 hrs, dose 10 mg/kg, route po; details: in vivo
[21] = Half life in Sprague-Dawley rat at 10 mg/kg, po measured for 24 hrs by LC-MS/MS analysis; format: ADME, organism-based; details: in vivo
[22] = Cmax in Sprague-Dawley rat at 10 mg/kg, po measured for 24 hrs by LC-MS/MS analysis; format: ADME, organism-based; set-up: time 24 hrs, dose 10 mg/kg, route po; details: in vivo
[23] = Toxicity in BALB/c mouse xenografted with human MV4-11 cells assessed as change in body weight at 15 mg/kg, iv BID for 21 days; format: organism-based; details: in vivo, 504 h, time 21 day
MV4-11 [24] = assay: Antitumor activity against human MV4-11 cells xenografted in BALB/c mouse assessed as tumor growth inhibition at 15 mg/kg, iv QD for 21 days by vernier caliper analysis; format: functional; details: MV4-11, 504 h, time 21 day, read-out: TGI
MV4-11 [25] = assay: Antitumor activity against human MV4-11 cells xenografted in BALB/c mouse assessed as inhibition rate of tumor weight at 15 mg/kg, iv QD for 21 days by vernier caliper analysis; format: functional; details: MV4-11, 504 h, time 21 day
MV4-11 [26] = assay: Antitumor activity against human MV4-11 cells xenografted in BALB/c mouse assessed as tumor growth inhibition at 15 mg/kg, iv BID for 21 days by vernier caliper analysis; format: functional; details: MV4-11, 504 h, time 21 day, read-out: TGI
[27] = Toxicity in BALB/c mouse xenografted with human MV4-11 cells assessed as lymphocyte count at 15 mg/kg, iv for 21 days; format: organism-based; details: in vivo, 504 h, time 21 day
[28] = Toxicity in BALB/c mouse xenografted with human MV4-11 cells assessed as granulocyte count at 15 mg/kg, iv for 21 days; format: organism-based; details: in vivo, 504 h, time 21 day
[29] = Toxicity in BALB/c mouse xenografted with human MV4-11 cells assessed as morphological changes in kidney at 15 mg/kg, iv for 21 days by H and E staining based analysis; format: organism-based; details: in vivo, 504 h, time 21 day
[30] = Toxicity in BALB/c mouse xenografted with human MV4-11 cells assessed as morphological changes in liver at 15 mg/kg, iv for 21 days by H and E staining based analysis; format: organism-based; details: in vivo, 504 h, time 21 day
[31] = Toxicity in BALB/c mouse xenografted with human MV4-11 cells assessed as morphological changes in spleen at 15 mg/kg, iv for 21 days by H and E staining based analysis; format: organism-based; details: in vivo, 504 h, time 21 day

Sequence of Receptor-type tyrosine-protein kinase FLT3 (Homo sapiens), P36888 [UNDEFINED MUTATION] (P36888 whole entry, looked up, stated change not applied): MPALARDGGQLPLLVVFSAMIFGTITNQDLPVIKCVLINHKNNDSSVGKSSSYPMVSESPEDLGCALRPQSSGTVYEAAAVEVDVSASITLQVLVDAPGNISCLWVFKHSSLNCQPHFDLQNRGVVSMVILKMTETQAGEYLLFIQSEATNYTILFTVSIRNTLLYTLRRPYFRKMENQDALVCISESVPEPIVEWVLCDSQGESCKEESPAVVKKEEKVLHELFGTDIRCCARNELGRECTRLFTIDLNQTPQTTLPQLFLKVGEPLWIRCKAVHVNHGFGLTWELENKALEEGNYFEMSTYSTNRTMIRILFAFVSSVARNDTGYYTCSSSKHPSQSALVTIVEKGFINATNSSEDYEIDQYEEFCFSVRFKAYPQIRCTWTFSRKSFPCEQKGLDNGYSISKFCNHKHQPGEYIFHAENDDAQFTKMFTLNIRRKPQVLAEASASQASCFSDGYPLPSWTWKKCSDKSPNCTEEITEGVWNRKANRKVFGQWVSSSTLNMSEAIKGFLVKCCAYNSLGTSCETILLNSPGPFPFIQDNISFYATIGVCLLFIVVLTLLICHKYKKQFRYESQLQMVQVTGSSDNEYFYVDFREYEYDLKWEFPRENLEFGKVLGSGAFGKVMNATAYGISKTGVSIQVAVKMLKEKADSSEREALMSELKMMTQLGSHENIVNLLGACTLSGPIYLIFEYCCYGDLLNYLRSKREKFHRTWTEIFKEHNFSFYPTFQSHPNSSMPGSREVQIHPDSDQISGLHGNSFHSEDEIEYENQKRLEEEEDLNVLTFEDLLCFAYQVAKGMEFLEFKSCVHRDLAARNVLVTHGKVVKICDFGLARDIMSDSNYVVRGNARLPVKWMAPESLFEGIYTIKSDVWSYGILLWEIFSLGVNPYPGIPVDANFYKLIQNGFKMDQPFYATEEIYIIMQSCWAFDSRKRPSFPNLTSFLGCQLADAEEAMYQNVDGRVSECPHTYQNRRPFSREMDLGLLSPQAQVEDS
Sequence of Receptor-type tyrosine-protein kinase FLT3 (Homo sapiens) (P36888 whole entry): as the sequence (P36888 whole entry, looked up, stated change not applied) above

CCN1CCN(c2ccc(C(=O)Nc3cc(-c4ccc5ncn(Cc6c(Cl)cccc6Cl)c5c4)[nH]n3)cc2)CC1
inhibition [1]: Dose-Dependent Effect | pIC50 (BaF3): 8.12 | Ratio IC50 [2]: 5.58 | Activity (HCD-57 [3]): Active | pIC50 (MKN-45): 5.39 | pIC50 (NB-4): < 5.30 | pIC50 (MOLM-13): 8.01 | inhibition [4]: Dose-Dependent Effect | inhibition [5]: Dose-Dependent Effect | Activity (MV4-11 [6]): 10.4% | Activity (MV4-11 [7]): 1.3% | Activity (MV4-11 [8]): 11.3% | Activity (MV4-11 [9]): 26.3% | Activity (MV4-11 [10]): 15.2% | Activity (HCD-57 [11]): Active | Activity (MV4-11 [12]): 88.7% | Activity (MV4-11 [13]): 88.1% | Activity (MV4-11 [14]): 90.3% | Activity (HCD-57 [15]): Active | Activity [16]: Non-Toxic | MRT last at 24 h [17]: 1.96 h | half-life [18]: 2.25 h | clearance [19]: 40.2 mL/min/kg | AUC(0-t) at 24 h [20]: 50.9 ng·h/mL | half-life [21]: 3.58 h | Cmax [22]: 9.31 ng/mL | Activity [23]: Non-Toxic | inhibition in vivo at 15 mg/kg (MV4-11 [24]): 99.5% | inhibition in vivo at 15 mg/kg (MV4-11 [25]): 82.7% | inhibition in vivo at 15 mg/kg (MV4-11 [26]): 108% | Activity [27]: Non-Toxic | Activity [28]: Non-Toxic | Activity [29]: Non-Toxic | Activity [30]: Non-Toxic | Activity [31]: Non-Toxic

— ChEMBL document CHEMBL5226341, “Discovery of a Potent FLT3 Inhibitor (LT-850-166) with the Capacity of Overcoming a Variety of FLT3 Mutations” (J Med Chem, 2021)
